Among the data in US20240343733A1, “COMPOUNDS FOR TARGETING DEGRADATION OF IRAK4 PROTEINS” (BIOGEN MA INC., priority 2021, published 2024) are DC50 values, retold here.

This experiment has as its target T1, IRAK4 (Homo sapiens, UniProt Q9NWZ3).
T1 construct: 293Tcells expressing HiBiT-tagged IRAK4 were then added into 384-well plates
T1 sequence (Q9NWZ3 1-460): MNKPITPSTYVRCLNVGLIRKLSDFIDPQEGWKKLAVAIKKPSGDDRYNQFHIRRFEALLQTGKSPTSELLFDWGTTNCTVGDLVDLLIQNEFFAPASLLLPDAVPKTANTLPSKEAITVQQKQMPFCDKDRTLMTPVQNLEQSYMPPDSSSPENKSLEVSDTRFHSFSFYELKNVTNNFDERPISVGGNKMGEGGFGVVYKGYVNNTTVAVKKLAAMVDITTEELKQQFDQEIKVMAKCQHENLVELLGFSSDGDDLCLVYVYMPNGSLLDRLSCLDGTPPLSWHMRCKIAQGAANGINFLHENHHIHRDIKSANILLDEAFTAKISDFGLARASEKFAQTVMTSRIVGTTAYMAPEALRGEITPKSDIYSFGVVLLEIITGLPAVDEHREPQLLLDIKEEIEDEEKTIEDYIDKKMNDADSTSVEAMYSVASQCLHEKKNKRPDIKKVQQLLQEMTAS
Kind of experiment: IRAK4 Degradation Assay, HiBiT Method. It is filed as cell-based. Conditions: 293T cells expressing HiBiT-tagged IRAK4, 6 hours. The essentials: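 293T cells with HiBiT knocked in at the C-terminus of endogenous IRAK4, 10,000 per well, treated 6 h at 37 °C with an 11-point half-log series ([…]), in duplicate. Remaining IRAK4 read by Nano-Glo HiBiT lytic luminescence against DMSO-only and media-only controls.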
`CC(C)Oc1cc2nc(C3CCN(CC(=O)N4CCC(c5ccc(C6(F)CCC(=O)NC6=O)cc5)CC4)CC3)cn2cc1C(=O)Nc1cccc(C(F)F)n1` (stereo not drawn) [Example 101, N-[6-(difluoromethyl)-2-pyridyl]-2-[1-[2-[4-[4-(3-fluoro-2,6-dioxo-3-piperidyl)phenyl]-1-piperidyl]-2-oxo-ethyl]-4-piperidyl]-7-isopropoxy-imidazo[1,2-a]pyridine-6-carboxamide] came in with a DC50 of 10 to 100 nM.

As to `CC(C)Oc1nc2nc(C3CCC(CN4CCC(c5cc6c(cc5F)c(N5CCC(=O)NC5=O)nn6C)CC4)CC3)cn2cc1C(=O)Nc1cccn([C@H]2C[C@H]2F)c1=O` (stereo partly drawn) [Example 197, 2-[4-[[4-[3-(2,4-dioxohexahydropyrimidin-1-yl)-5-fluoro-1-methyl-indazol-6-yl]-1-piperidyl]methyl]cyclohexyl]-N-[1-[(1S,2R)-2-fluorocyclopropyl]-2-oxo-3-pyridyl]-7-isopropoxy-imidazo[1,2-a]pyrimidine-6-carboxamide], the DC50 was less than 10 nM.

`CC(C)Oc1cc2nc(C3CCN(C(=O)CN4CCC(n5ccc(NC6CCC(=O)NC6=O)n5)CC4)CC3)cn2cc1C(=O)Nc1cccc(C(F)F)n1` (stereo not drawn) [Example 83, N-[6-(difluoromethyl)-2-pyridyl]-2-[1-[2-[4-[3-[(2,6-dioxo-3-piperidyl)amino]pyrazol-1-yl]-1-piperidyl]acetyl]-4-piperidyl]-7-isopropoxy-imidazo[1,2-a]pyridine-6-carboxamide] returned a DC50 of 10 to 100 nM.

Molecule `CC(C)Oc1cc2nc([C@H]3CC[C@H](CN4CCC(c5ccc(C6(C)CCC(=O)NC6=O)cc5)CC4)CC3)cn2cc1C(=O)Nc1cccc(C(F)F)n1` (stereo partly drawn) [Example 40, N-[6-(difluoromethyl)-2-pyridyl]-7-isopropoxy-2-[4-[[4-[4-(3-methyl-2,6-dioxo-3-piperidyl)phenyl]-1-piperidyl]methyl]cyclohexyl]imidazo[1,2-a]pyridine-6-carboxamide] showed a DC50 of 100 to 500 nM.

The molecule `CC(C)Oc1cc2nc(C3CCN(C(=O)CN4CCN(c5ccc(C6CCC(=O)NC6=O)cn5)CC4)CC3)cn2cc1C(=O)Nc1cccn([C@H]2C[C@H]2F)c1=O` (stereo partly drawn) [Example 163, 2-(1-(2-(4-(5-(2,6-dioxopiperidin-3-yl)pyridin-2-yl)piperazin-1-yl)acetyl)piperidin-4-yl)-N-(1-((1S,2R)-2-fluorocyclopropyl)-2-oxo-1,2-dihydropyridin-3-yl)-7-isopropoxyimidazo[1,2-a]pyridine-6-carboxamide] registered a DC50 of less than 10 nM.

`CC(C)Oc1cc2nn([C@H]3CC[C@H](CN4CC[C@H](c5cc6c(cc5F)c(N5CCC(=O)NC5=O)nn6C)[C@H](O)C4)CC3)cc2cc1C(=O)Nc1cccn([C@H]2C[C@H]2F)c1=O` [Example 184, 2-((1S,4S)-4-(((3S,4R)-4-(3-(2,4-dioxotetrahydropyrimidin-1(2H)-yl)-5-fluoro-1-methyl-1H-indazol-6-yl)-3-hydroxypiperidin-1-yl)methyl)cyclohexyl)-N-(1-((1S,2R)-2-fluorocyclopropyl)-2-oxo-1,2-dihydropyridin-3-yl)-6-isopropoxy-2H-indazole-5-carboxamide]: the 50% degradation concentration (DC50) was less than 10 nM.

`CC(C)Oc1cc2nc(C3CCN(CC(=O)N4CC5(C4)CN(c4ccc(C6CCC(=O)NC6=O)cc4)C5)CC3)cn2cc1C(=O)Nc1cccc(C(F)F)n1` (stereo not drawn) [Example 110, N-[6-(difluoromethyl)-2-pyridyl]-2-[1-[2-[6-[4-(2,6-dioxo-3-piperidyl)phenyl]-2,6-diazaspiro[3.3]heptan-2-yl]-2-oxo-ethyl]-4-piperidyl]-7-isopropoxy-imidazo[1,2-a]pyridine-6-carboxamide]: the DC50 lay in the range of 10 to 100 nM.

For the molecule `CC(C)Oc1cc2nc([C@H]3CC[C@H](CN4CCC(c5ccc(OC6CCC(=O)NC6=O)cc5)CC4)CC3)cn2cc1C(=O)Nc1cccn(C2CC2)c1=O` (stereo partly drawn) [Example 166, N-(1-cyclopropyl-2-oxo-1,2-dihydropyridin-3-yl)-2-((1r,4r)-4-((4-(4-((2,6-dioxopiperidin-3-yl)oxy)phenyl)piperidin-1-yl)methyl)cyclohexyl)-7-isopropoxyimidazo[1,2-a]pyridine-6-carboxamide], the DC50 was in the range of 10 to 100 nM.

Molecule `CC(C)Oc1cc2nn(C3CCN(C(=O)CN4CCC(c5ccc(C6CCC(=O)NC6=O)cc5)CC4)CC3)cc2cc1C(=O)Nc1cnn2cccnc12` (stereo not drawn) [Example 56, 2-(1-(2-(4-(4-(2,6-dioxopiperidin-3-yl)phenyl)piperidin-1-yl)acetyl)piperidin-4-yl)-6-isopropoxy-N-(pyrazolo[1,5-a]pyrimidin-3-yl)-2H-indazole-5-carboxamide] showed a DC50 of less than 10 nM.

As to `CC(C)Oc1cc2nn([C@H]3CC[C@H](CN4CCC(c5cc6c(cc5F)c(N5CCC(=O)NC5=O)nn6C)CC4)CC3)cc2cc1C(=O)Nc1cccn(C2CC2)c1=O` [Example 198, N-(1-cyclopropyl-2-oxo-1,2-dihydropyridin-3-yl)-2-((r,4r)-4-((4-(3-(2,4-dioxotetrahydropyrimidin-1(2H)-yl)-5-fluoro-1-methyl-1H-indazol-6-yl)piperidin-1-yl)methyl)cyclohexyl)-6-isopropoxy-2H-indazole-5-carboxamide], the DC50 was less than 10 nM.

`CC(C)Oc1cc2nc(C3CCN(C(=O)NC4CCN(c5ncc(C6CCC(=O)NC6=O)cc5F)CC4)CC3)cn2cc1C(=O)Nc1cnn2cccnc12` (stereo not drawn) [Example 158, 2-(1-((1-(5-(2,6-dioxopiperidin-3-yl)-3-fluoropyridin-2-yl)piperidin-4-yl)carbamoyl)piperidin-4-yl)-7-isopropoxy-N-(pyrazolo[1,5-a]pyrimidin-3-yl)imidazo[1,2-a]pyridine-6-carboxamide]: the DC50 was less than 10 nM.

Turning to `CC(C)Oc1cc2nc([C@H]3CC[C@H](CN4CCC(c5ccc6c(c5)oc(=O)n6C5CCC(=O)NC5=O)CC4)CC3)cn2cc1C(=O)Nc1cnn2cccnc12` (stereo partly drawn) [Example 173, 2-((1r,4r)-4-((4-(3-(2,6-dioxopiperidin-3-yl)-2-oxo-2,3-dihydrobenzo[d]oxazol-6-yl)piperidin-1-yl)methyl)cyclohexyl)-7-isopropoxy-N-(pyrazolo[1,5-a]pyrimidin-3-yl)imidazo[1,2-a]pyridine-6-carboxamide], the DC50 is less than 10 nM.

Regarding `CC(C)Oc1nc2nc(C3CCN(C(=O)CC4CCN(c5ncc(C6CCC(=O)NC6=O)cc5F)CC4)CC3)cn2cc1C(=O)Nc1cccn([C@H]2C[C@H]2F)c1=O` (stereo partly drawn) [Example 186, 2-(1-(2-(1-(5-(2,6-dioxopiperidin-3-yl)-3-fluoropyridin-2-yl)piperidin-4-yl)acetyl)piperidin-4-yl)-N-(1-((1S,2R)-2-fluorocyclopropyl)-2-oxo-1,2-dihydropyridin-3-yl)-7-isopropoxyimidazo[1,2-a]pyrimidine-6-carboxamide], the DC50 is less than 10 nM.

Take `CC(C)Oc1cc2nc([C@H]3CC[C@H](CN(C)C4CCN(Cc5cccc(NC6CCC(=O)NC6=O)c5)CC4)CC3)cn2cc1C(=O)Nc1cccc(C(F)F)n1` (stereo partly drawn) [Example 34, N-[6-(difluoromethyl)-2-pyridyl]-2-[4-[[[1-[[3-[(2,6-dioxo-3-piperidyl)amino]phenyl]methyl]-4-piperidyl]-methyl-amino]methyl]cyclohexyl]-7-isopropoxy-imidazo[1,2-a]pyridine-6-carboxamide]: the DC50 lay within 100 to 500 nM.

Molecule `CC(C)Oc1cc2nn(C3CCN(C(=O)NC4CCN(c5ncc(C6CCC(=O)NC6=O)cc5F)CC4)CC3)cc2cc1C(=O)Nc1cccn([C@H]2C[C@H]2F)c1=O` (stereo partly drawn) [Example 154, 2-(1-((1-(5-(2,6-dioxopiperidin-3-yl)-3-fluoropyridin-2-yl)piperidin-4-yl)carbamoyl)piperidin-4-yl)-N-(1-((1S,2R)-2-fluorocyclopropyl)-2-oxo-1,2-dihydropyridin-3-yl)-6-isopropoxy-2H-indazole-5-carboxamide] had a DC50 of less than 10 nM.

`CC(C)Oc1cc2nc([C@H]3CC[C@H](CN4CC[C@H](c5ccc6c(N7CCC(=O)NC7=O)nn(C)c6c5)[C@H](O)C4)CC3)cn2cc1C(=O)Nc1cnn2cccnc12` [Example 177, 2-((1S,4r)-4-(((3S,4R)-4-(3-(2,4-dioxotetrahydropyrimidin-1(2H)-yl)-1-methyl-1H-indazol-6-yl)-3-hydroxypiperidin-1-yl)methyl)cyclohexyl)-7-isopropoxy-N-(pyrazolo[1,5-a]pyrimidin-3-yl)imidazo[1,2-a]pyridine-6-carboxamide] showed a DC50 of less than 10 nM.

Take `CC(C)Oc1cc2nc(C3CCN(C(=O)CN4CCC(c5ccc(C6(F)CCC(=O)NC6=O)cc5)CC4)CC3)cn2cc1C(=O)Nc1cnn2cccnc12` (stereo not drawn) [Example 89, 2-[1-[2-[4-[4-(3-fluoro-2,6-dioxo-3-piperidyl)phenyl]-1-piperidyl]acetyl]-4-piperidyl]-7-isopropoxy-N-pyrazolo[1,5-a]pyrimidin-3-yl-imidazo[1,2-a]pyridine-6-carboxamide]: the DC50 was less than 10 nM.

The molecule `CC(C)Oc1cc2nc([C@H]3CC[C@H](CN4CCC(c5cccc(NC6CCC(=O)NC6=O)c5F)CC4)CC3)cn2cc1C(=O)Nc1cccc(C(F)F)n1` (stereo partly drawn) [Example 22, N-[6-(difluoromethyl)-2-pyridyl]-2-[4-[[4-[3-[(2,6-dioxo-3-piperidyl)amino]-2-fluoro-phenyl]-1-piperidyl]methyl]cyclohexyl]-7-isopropoxy-imidazo[1,2-a]pyridine-6-carboxamide] showed a DC50 of 10 to 100 nM.
